Experiments:
[1] = system: animal displaying atrial fibrillation; assay: Treatment of atrial fibrillation by intra-tracheal flecainide, monitored by smartphone ECG and Prucka System; type: in vivo; details: intra-tracheal administration of 0.75 mg/kg; animal in atrial fibrillation
Experimental: An exemplary smart phone app was installed on a smartphone in order to monitor the efficacy of FA at ceasing incidence of atrial fibrillation. The smartphone app allowed for communication between the smart phone and an electronic monitoring chip used to produce an ECG.
The smart phone device was then used to monitor the treatment efficacy of an intra-tracheal administration of 0.75 mg/kg flecainide in treating atrial fibrillation. FIG. 9 depicts an exemplary ECG produced from a smartphone as compared to a Prucka System in an animal displaying atrial fibrillation. Again, the traces show excellent correlation between the two devices.

PAF = details: cited from earlier work
[2] = Assessment of different inhalers with flecainide acetate (FA) solution at 30 mg/ml; type: physicochemical
Experimental: Different inhalers were then tested to assess compatibility of material to the different materials of construction and different types of inhalers (Table 2).
The Trek S from PARI was able to deliver the same dose in about 3 minutes.

atrial fibrillation = assay: Administration of diltiazem by inhalation in atrial fibrillation; type: in vivo
Text: Inhalation avoids the initial dilution of drug in the body as compared to intravenous or oral dosing. Inhalation also avoids first-pass metabolism, such as hepatic metabolism. For instance, calcium channel blockers, such as diltiazem, undergo significant hepatic metabolism when taken orally. Inhalation allows rapid delivery of the parent diltiazem compound to the heart as a bolus. […] Thus, administration by inhalation of diltiazem is useful for treating both atrial fibrillation and supraventricular tachycardia (SVT). In contrast, administration by IV of diltiazem is typically only used for converting SVT to normal sinus rhythm and in atrial fibrillation to reduce heart rate (not for converting to normal sinus rhythm). Inhalation also avoids red blood cell metabolism. For instance, the reduced dilution and short route associated with inhalation reduces red blood cell metabolism of esmolol. Inhalation may also avoid reduced blood pressure and fainting. For instance, IV administration of beta blockers, such as esmolol, and/or Class I antiarrhythmics such as flecainide, may reduce mean arterial blood pressure (MAP). Inhalation can allow rapid delivery of esmolol and/or flecainide without reducing MAP. […]

For O=C(NCC1CCCCN1)c1cc(OCC(F)(F)F)ccc1OCC(F)(F)F (stereo not shown) [flecainide], the “Effect on atrial fibrillation (ECG rhythm)” value [1] is listed as “return to sinus rhythm”, the “Average time to terminate the PAF” value (PAF; oral bolus of 300 mg (max per day) at one time) is listed as 100 min and the “Effectiveness of oral flecainide” value (PAF; oral) is listed as 30-50%. The “Time to deliver a 30-40 mg dose” value ([2]; Pari e-rapid or Lumiscope inhalers, 30-40 mg dose) was “less than 2 minutes” and the “Time to deliver a 30-40 mg dose” value ([2]; Trek S from PARI, same 30-40 mg dose) was “about 3 minutes”.
For COc1ccc([C@@H]2Sc3ccccc3N(CCN(C)C)C(=O)[C@@H]2OC(C)=O)cc1 [diltiazem], the “Effect on atrial fibrillation rhythm” value (atrial fibrillation) was “converted atrial fibrillation to normal sinus rhythm” and the “Effect on heart rate” value (atrial fibrillation) was “reduced heart rate”.
